Where “and” joins values, the source holds several entries; their conditions need not be identical. Identical values can stand only once. Each block holds one compound with its values, some of them ahead of it. Ends that are not written are not given here. Peptide text beside a SMILES is read from it. * marks the point of attachment. Decanoyl = CCCCCCCCCC(=O)*
Tests used:
[1] = target: T1, plasmin (Homo sapiens, UniProt P00747); assay: Peptide degradation by plasmin with or without protease inhibitor (LC/MS); type: in vitro ADME; details: for Survival: peptide 1 mg/mL
T1 construct: purchased Sigma-Aldrich
T1 sequence (P00747 581-810 limits assumed, species assumed): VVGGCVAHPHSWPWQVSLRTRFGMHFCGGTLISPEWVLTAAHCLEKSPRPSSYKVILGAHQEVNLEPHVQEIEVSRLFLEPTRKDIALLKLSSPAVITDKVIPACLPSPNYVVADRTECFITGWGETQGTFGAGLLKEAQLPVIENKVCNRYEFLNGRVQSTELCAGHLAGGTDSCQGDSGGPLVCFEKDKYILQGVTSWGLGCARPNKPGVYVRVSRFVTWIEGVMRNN
T1 sequence (P00747 97-580 limits assumed, species assumed): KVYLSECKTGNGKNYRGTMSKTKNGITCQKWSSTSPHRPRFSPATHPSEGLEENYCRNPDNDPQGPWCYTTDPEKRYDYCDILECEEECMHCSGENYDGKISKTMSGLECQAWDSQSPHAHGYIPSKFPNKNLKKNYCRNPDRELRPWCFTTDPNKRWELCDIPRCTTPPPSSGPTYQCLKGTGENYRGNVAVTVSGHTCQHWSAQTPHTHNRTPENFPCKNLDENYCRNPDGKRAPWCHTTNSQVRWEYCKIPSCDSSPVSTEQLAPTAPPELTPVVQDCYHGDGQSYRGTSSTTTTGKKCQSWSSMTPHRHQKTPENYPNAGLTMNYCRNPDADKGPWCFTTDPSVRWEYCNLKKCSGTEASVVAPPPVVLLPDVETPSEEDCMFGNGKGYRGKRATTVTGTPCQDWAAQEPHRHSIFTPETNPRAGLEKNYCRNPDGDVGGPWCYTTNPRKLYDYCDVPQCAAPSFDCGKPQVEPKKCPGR
Procedure: (§1) Peptides of synthetic origin and LL-37 were used in the protease processing experiments at a concentration of 1-2 mg/mL in 0.5M MOPS pH 8.5/0.5M NaCl final buffer concentration. Proteases were used at a concentration of 0.020-0.050 mg/mL.
(§2) Experiments were run in pairs, one with protease inhibitor and one without a protease inhibitor. Liquid chromatography/mass spectrometry (LC/MS) spectra were collected at approximately 1-minute, 1-hour, 4-hour and 24-hour time points from the time of adding protease to the peptide (time zero). LC/MS spectra were collected using a standard reverse phase gradient starting at 5% acetonitrile and ramping up to 65% acetonitrile in 25 minutes.
(§3) The proteases employed in the study were initially dissolved in a 1M NaCl solution, while the peptides were dissolved in 1M MOPS buffer at pH 8.5. The solutions were equilibrated to 37° C. and then mixed at a ratio of 1:1 to start each experiment. Lower buffer concentrations were also used (0.1M MOPS pH 8.5 and 0.2M NaCl). Protease inhibitors were tested at several different concentrations (low and high from 0.02 mg/mL to 40 mg/mL) against a given protease.
(§4) The mass spectrometer used in these studies has a limit of detection below which the specific molecular weight of a molecule cannot be identified from the TIC trace. In these below-detection situations, it was assumed that the tested peptide was completely degraded.
(§5) A series of experiments were performed employing the above-described methodology to determine the utility of the invention as it regards a wider range of proteases, peptides and protease inhibitors. If, at any specific time-point, there was no detectable parent peptide (i.e., the absence of non-degraded peptide), then that time-point was documented as the time required for peptide degradation.

[2] = target: T2, chymotrypsin (Bos taurus, UniProt P00766); assay: Peptide degradation by chymotrypsin with or without protease inhibitor (LC/MS); type: in vitro ADME; details: peptide 1 mg/mL
T2 construct: purchased Sigma-Aldrich
Procedure: as §1, §2, §3, §4, §5

[3] = test system: trypsin; assay: Peptide degradation by trypsin with or without protease inhibitor (LC/MS); type: in vitro ADME; details: for Survival: Trypsin 25 μg/mL, peptide 1 mg/mL
Procedure: as §1, §2, §3, §4, §5

[4] = test system: elastase; assay: Peptide degradation by elastase with or without protease inhibitor (LC/MS); type: in vitro ADME; details: Elastase 25 μg/mL, peptide 1 mg/mL
Procedure: as §1, §2, §3, §4, §5

[5] = test system: kallikrein; assay: Peptide degradation by kallikrein with or without protease inhibitor (LC/MS); type: in vitro ADME; details: Kallikrein 25 μg/mL, peptide 1 mg/mL
Procedure: as §1, §2, §3
The mass spectrometer used in these studies has a limit of detection below which the specific molecular weight of a molecule cannot be identified from the TIC trace. In these below-detection situations, it was assumed that the tested peptide was completely degraded. […]

[6] = test system: IL-6 expression; assay: UVB-induced IL-6 expression in human skin epithelial cells (ELISA); type: cell-based; details: for reduction of IL-6 levels: skin epithelial cells treated with UVB; for repression of UVB-induced IL-6 expression: skin epithelial cells, peptide 40 μg/mL, 24 hours post UVB
Procedure: (§6) Human skin epithelial cells (ATCC CRL-2592), keratinocytes (ATCC CRL-2404) and skin fibroblasts (ATCC CRL-7481) were employed in the study. Cells were seeded into 6-well plates and allowed to grow to >95% confluence in Dulbecco's modified Eagle's medium (DMEM; 4 mM L-glutamine, 4.5 g/L glucose) adjusted to contain 1.5 g/L sodium bicarbonate and supplemented with 10% fetal bovine serum (FBS). For keratinocytes, cells were grown in keratinocyte growth media (without serum) supplemented with 5 ng/mL human recombinant epithelial growth factor (EGF; Invitrogen, Grand Island, N.Y.). After the cell monolayer reached >95% confluence, the cells were serum-starved or EGF-starved for 24 hours in complete medium without serum. UVA or UVB was generated using a UVLMS lamp (4-W model, 3UV assembly; Upland, Calif.) with the irradiation wavelength set at 365 or 302 nm, respectively. The UV lamp was placed 15 cm above the tissue culture plate. Before UV treatment, the tissue culture media was replaced with PBS, after which the cells were placed under the UVB lamp (450 μW/cm^2, measured using a radiometer) for 35 seconds (epithelial cells and fibroblasts) or 25 seconds (keratinocytes). UVA treatment was conducted (500 μW/cm^2) for 30 seconds with fibroblasts. After UV treatment, PBS was immediately replaced with complete medium (without serum or EGF) containing either no peptide or peptide at a specified concentration, and the plates were incubated at 37° C., 5% CO2 for 15-24 hours. The cell media was then collected and spun down at 15000 rpm for 2 minutes to remove cell debris. IL-6 and MMP-1 levels in the media were measured, respectively, using human IL-6 (DIACLONE, Stamford, Conn.) and MMP-1 (Calbiochem, San Diego, Calif.) ELISA kits according to manufacturers' instructions. These measurements served as indicators of cell inflammatory activity in response to UV exposure.
All the tetrapeptides listed in Table I were subjected to a screening test at 40 μg/mL for potential down-regulation of this response (data not shown).
P1422 (SEQ ID NO:1) reduced IL-6 levels by 19% and 25% at 10 and 20 μg/mL, respectively; and P1423 (SEQ ID NO:2) reduced IL-6 levels by 10% and 20% at 10 and 20 μg/mL, respectively.

[7] = test system: IL-6 expression; assay: UVB-induced IL-6 expression in human keratinocytes (ELISA); type: cell-based; details: UVB-treated human keratinocytes; peptide 10 μg/mL
Procedure: as §6, with “UVA treatment was conducted (500 μW/cm^2) for 30 seconds with fibroblasts. After UV treatment, PBS was immediately replaced with complete medium (without serum or EGF) containing either no peptide or peptide at a specified concentration, and the plates were incubated at 37° C., 5% CO2 for 15-24 hours. The cell media was then collected and spun down at 15000 rpm for 2 minutes to remove cell debris.” left out, “These measurements served as indicators of cell inflammatory activity in response to UV exposure.” left out

[8] = test system: IL-6 expression; assay: UVB-induced IL-6 expression in human skin fibroblasts (ELISA); type: cell-based; details: human fibroblasts after UVB
Procedure: as §6
Such peptide-mediated IL-6 down-regulation was also evident in human fibroblasts after exposure to UVB.

[9] = test system: MMP-1 expression; assay: UVA-induced MMP-1 expression in human skin fibroblasts (ELISA); type: cell-based; details: UVA 500 μW/cm^2, peptide 10 μg/mL
Procedure: as §6, with “UVA treatment was conducted (500 μW/cm^2) for 30 seconds with fibroblasts. After UV treatment, PBS was immediately replaced with complete medium (without serum or EGF) containing either no peptide or peptide at a specified concentration, and the plates were incubated at 37° C., 5% CO2 for 15-24 hours. The cell media was then collected and spun down at 15000 rpm for 2 minutes to remove cell debris.” left out, “These measurements served as indicators of cell inflammatory activity in response to UV exposure.” left out

[10] = test system: MMP-1 expression; assay: MMP-1 induction in fibroblasts incubated in media conditioned by UVB-treated keratinocytes (ELISA); type: cell-based, human; details: peptide 10 μg/mL
Procedure: as §6, with “UVA treatment was conducted (500 μW/cm^2) for 30 seconds with fibroblasts. After UV treatment, PBS was immediately replaced with complete medium (without serum or EGF) containing either no peptide or peptide at a specified concentration, and the plates were incubated at 37° C., 5% CO2 for 15-24 hours. The cell media was then collected and spun down at 15000 rpm for 2 minutes to remove cell debris.” left out, “These measurements served as indicators of cell inflammatory activity in response to UV exposure.” left out

Compound: CC[C@H](C)[C@H](NC(=O)[C@H](CCCCN)NC(=O)[C@H](CCC(=O)O)NC(=O)[C@H](CCCCN)NC(=O)[C@H](CO)NC(=O)[C@H](CCCCN)NC(=O)[C@H](CCCNC(=N)N)NC(=O)[C@H](Cc1ccccc1)NC(=O)[C@H](Cc1ccccc1)NC(=O)[C@H](CC(=O)O)NC(=O)CNC(=O)[C@H](CC(C)C)NC(=O)[C@@H](N)CC(C)C)C(=O)NCC(=O)N[C@@H](CCCCN)C(=O)N[C@@H](CCC(=O)O)C(=O)N[C@@H](Cc1ccccc1)C(=O)N[C@@H](CCCCN)C(=O)N[C@@H](CCCNC(=N)N)C(=O)N[C@H](C(=O)N[C@H](C(=O)N[C@@H](CCC(N)=O)C(=O)N[C@@H](CCCNC(=N)N)C(=O)N[C@H](C(=O)N[C@@H](CCCCN)C(=O)N[C@@H](CC(=O)O)C(=O)N[C@@H](Cc1ccccc1)C(=O)N[C@@H](CC(C)C)C(=O)N[C@@H](CCCNC(=N)N)C(=O)N[C@@H](CC(N)=O)C(=O)N[C@@H](CC(C)C)C(=O)N[C@H](C(=O)N1CCC[C@H]1C(=O)N[C@@H](CCCNC(=N)N)C(=O)N[C@H](C(=O)N[C@@H](CCC(=O)O)C(=O)N[C@@H](CO)C(=O)O)[C@@H](C)O)C(C)C)[C@@H](C)CC)C(C)C)[C@@H](C)CC [LL-37]
parent peptide detection [1]: undetectable
Survival ([1]; Plasmin 22 μg/mL, no protease inhibitor): <1 h
Survival ([1]; Plasmin 22 μg/mL, no protease inhibitor, Expt. 38): <0.75 h
Survival ([1]; Plasmin 22 μg/mL, tranexamic acid 9 mg/mL): <4 h
Survival ([2]; Chymotrypsin 22 μg/mL, no protease inhibitor): <1 h
Survival ([2]; Chymotrypsin 22 μg/mL, tranexamic acid 9 mg/mL): <1 h

Compound: CCCCCCCCCC(=O)N[C@@H](CCCCN)C(=O)N[C@@H](Cc1ccccc1)C(=O)N[C@@H](CCCCN)C(=O)N[C@@H](Cc1c[nH]c2ccccc12)C(=O)N1CCC[C@H]1C(=O)N[C@@H](Cc1c[nH]c2ccccc12)C(N)=O [HB1345, decanoyl-KFKWPW-NH2] (Decanoyl-KFKWPW-NH2)
Survival ([3]; aprotinin 0.02 mg/mL): >24 h
Survival ([3]; no protease inhibitor): <1 h

parent peak in TIC traces [3]: reduced over time
amount of parental peptide by XIC trace compared to plasmin alone ([1]; plasmin plus tranexamic acid vs plasmin alone): five-times greater
degradation of peptide (TIC and XIC traces) ([1]; plasmin, no inhibitor, 4-hour exposure): most of the HB64 peptide was degraded
Compound: FAKALKALLKALKAL-NH2 [HB64, FAKALKALLKALKAL-NH2]
Survival ([4]; aprotinin 0.02 mg/mL): <1 h
Survival ([4]; no protease inhibitor): <1 h
Survival ([4]; tranexamic acid 0.80 mg/mL): <1 h
Survival ([1]; Plasmin 20 μg/mL, no protease inhibitor): <4 h
Survival ([1]; Plasmin 22 μg/mL, tranexamic acid 40 mg/mL): <24 h
Survival ([1]; Plasmin 25 μg/mL, no protease inhibitor): <4 h and <6 h
Survival ([1]; Plasmin 46 μg/mL, no protease inhibitor): <4 h
Survival ([1]; Plasmin 50 μg/mL, tranexamic acid 10 mg/mL): <6 h
protection of peptide (TIC and XIC traces) ([1]; plasmin plus tranexamic acid, 4-hour exposure): protected from plasmin-mediated proteolysis
Survival ([5]; no protease inhibitor): <24 h
Survival ([5]; tranexamic acid 0.80 mg/mL): <24 h
Survival ([2]; Chymotrypsin 25 μg/mL, aprotinin 0.02 mg/mL): <24 h
Survival ([2]; Chymotrypsin 25 μg/mL, no protease inhibitor): <1 h

Compound: PQEK-NH2 [P1422, tetrapeptide amidated at the carboxy terminus]
reduction of IL-6 levels ([6]; peptide 10 μg/mL): 19%
reduction of IL-6 levels ([6]; peptide 20 μg/mL): 25%
repression of UVB-induced IL-6 expression [6]: reproducible repression
down-regulation of IL-6 expression [7]: down-regulate IL-6 expression
reduction of IL-6 levels compared to control ([8]; peptide 10 μg/mL): 30%
reduction of IL-6 ([8]; peptide concentrations lower than 10 μg/mL): no significant reduction
down-regulation of UVA-induced MMP-1 expression [9]: able to down-regulate
MMP-1 induction [10]: far less MMP-1 induction

Compound: PQEI-NH2 [P1423, tetrapeptide amidated at the carboxy terminus]
reduction of IL-6 levels ([6]; peptide 10 μg/mL): 10%
reduction of IL-6 levels ([6]; peptide 20 μg/mL): 20%
repression of UVB-induced IL-6 expression [6]: reproducible repression
down-regulation of IL-6 expression [7]: down-regulate IL-6 expression
reduction of IL-6 levels compared to control ([8]; peptide 2 μg/mL): 24%
reduction of IL-6 levels compared to control ([8]; peptide 5 μg/mL): 30%
reduction of IL-6 levels compared to control ([8]; peptide 10 μg/mL): 48%
down-regulation of UVA-induced MMP-1 expression [9]: able to down-regulate
MMP-1 induction [10]: far less MMP-1 induction

Compound: FALLKL-NH2 [HB168]
Survival ([3]; aprotinin 0.02 mg/mL): >24 h
Survival ([3]; no protease inhibitor): <1 h

From patent US8071555B2, “Protective skin care peptides” (Helix BioMedix Inc., priority 2007, dated 2011)
